# Assay: recombinant UMI read abundance after kanamycin selection (control-corrected) (log10(CPM+1)); higher = more efficient recombination; extreme values may be limits of the assay; sequences stand for … in AGTGCAGAGAAAATCGGCCAGTTTTCTCTGCCTGCAGTCCGCATGCCGTGGGACCCCTTGGGTTCTAACCTGTTGCCTAGATTTATGCAGCGGACTGCCTTTCTCCCAAAGTGATAAACCGG…AGGTTGGTTTCACT; site = the 11-nt donor
# Method in brief: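 Sequenced counts of recombinant UMIs were turned into CPM, averaged across replicates and scaled with control-derived factors. The reported figure is log10(CPM+1). Those UMIs, each 12 nt long, tagged donor and donor-binding-loop pairs on a plasmid with a promoterless kanamycin gene, screened as a pool in Escherichia coli with IPTG (0.07 mM) plus kanamycin or without selection.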
# 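Note: IS621 bridge recombinase in Escherichia coli cells against a fixed T5 target plasmid.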
row,Sequence,recombinant UMI read abundance (log10)
1,CTGGAAACATGGACCGGTTTTCCCGGTAATCCGTATTTGCA (site CTGGACACTTG),0.00329
2,CTGGAAACATGGACCGGTTTTCCCGGTAATCCGTATTTGCA (site CTGGAGACTTG),1.43
3,CTGGAAACATGGACCGGTTTTCCCGGTAATCCGTATTTGCA (site CTGGATACTTG),0.526
4,CTGGAAACATGGACCGGTTTTCCCGGTAATCCGTATTTGCA (site CTGGCAACTTG),0.416
5,CTGGAAACATGGACCGGTTTTCCCGGTAATCCGTATTTGCA (site CTGGGAACTTG),0.596
6,CTGGAAACATGGACCGGTTTTCCCGGTAATCCGTATTTGCA (site CTGGTAACTTG),0.00624
7,CTGGAAACATGGACCGGTTTTCCCGGTAATCCGTATTTGCA (site CTGTAAACTTG),0.123
8,CTGGAAACATGGACCGGTTTTCCCGGTAATCCGTATTTGCA (site CTTGAAACTTG),0.578
9,CTGGAAACATGGACCGGTTTTCCCGGTAATCCGTATTTGCA (site GTGGAAACTTG),0.00967
10,CTGGAAACATGGACCGGTTTTCCCGGTAATCCGTATTTGCA (site TTGGAAACTTG),0
11,CTGGAAACATGGACCGGTTTTCCCGGTAATCCGTATTTGCC (site CTGGAAACTAG),0
12,CTGGAAACATGGACCGGTTTTCCCGGTAATCCGTATTTGCC (site CTGGAAACTCG),0
13,CTGGAAACATGGACCGGTTTTCCCGGTAATCCGTATTTGCC (site CTGGAAACTGG),0
14,CTGGAAACATGGACCGGTTTTCCCGGTAATCCGTATTTGCC (site CTGGAAACTTG),0.22
15,CTGGAAACATGGACCGGTTTTCCCGGTAATCCGTATTTGCG (site CTGGAAACTAG),0
16,CTGGAAACATGGACCGGTTTTCCCGGTAATCCGTATTTGCG (site CTGGAAACTCG),2.37
17,CTGGAAACATGGACCGGTTTTCCCGGTAATCCGTATTTGCG (site CTGGAAACTGG),0
18,CTGGAAACATGGACCGGTTTTCCCGGTAATCCGTATTTGCG (site CTGGAAACTTG),1.72
19,CTGGAAACATGGACCGGTTTTCCCGGTAATCCGTATTTGGT (site CTGGAAACTAC),1.92
20,CTGGAATCATGGACCGGTTTTCCCGGTAATCCGTATTTGCA (site CTGGAAACTTG),1.56
21,CTGGAATCATGGACCGGTTTTCCCGGTAATCCGTATTTGCA (site CTGGAACCTTG),0
22,CTGGAATCATGGACCGGTTTTCCCGGTAATCCGTATTTGCA (site CTGGAAGCTTG),0
23,CTGGAATCATGGACCGGTTTTCCCGGTAATCCGTATTTGCA (site CTGGAATCTTG),2.19
24,CTGGCATCATGGACCGGTTTTCCCGGTAATCCGTATTTGGC (site CTGGCATCTGC),2.75
25,CTGGCGTCATGGACCGGTTTTCCCGGTAATCCGTATTTGAG (site CTGGCGTCTCT),0.929

row,Sequence,recombinant UMI read abundance (log10)
1,CTGGGAACATGGACCGGTTTTCCCGGTAATCCGTATTTGCA (site CTGGAAACTTG),1.87
2,CTGGGAACATGGACCGGTTTTCCCGGTAATCCGTATTTGCA (site CTGGCAACTTG),0.789
3,CTGGGAACATGGACCGGTTTTCCCGGTAATCCGTATTTGCA (site CTGGGAACTTG),2.39
4,CTGGGAACATGGACCGGTTTTCCCGGTAATCCGTATTTGCA (site CTGGTAACTTG),0.262
5,CTGGGCGCATGGACCGGTTTTCCCGGTAATCCGTATTTGCA (site AATACGCCTAT),0.0174
6,CTGGTATCATGGACCGGTTTTCCCGGTAATCCGTATTTGCC (site CTAGTATCTGT),0
7,CTGGTATCATGGACCGGTTTTCCCGGTAATCCGTATTTGCC (site CTGGTATCTGG),0
8,CTGGTTACATGGACCGGTTTTCCCGGTAATCCGTATTTGGC (site CTGGTTACTGC),1.74
9,CTGTACGCATGGACCGGTTTTCCCGGTAATCCGTATTTGGT (site CTGTACGCTAC),1.26
10,CTGTAGCCATGGACCGGTTTTCCCGGTAATCCGTATTTGAT (site CTGTAGCCTAT),0.748
11,CTGTAGGCATGGACCGGTTTTCCCGGTAATCCGTATTTGGC (site ATGTAGGCTGC),0.626
12,CTGTAGGCATGGACCGGTTTTCCCGGTAATCCGTATTTGGC (site CTGTAGGCTGC),2.01
13,CTGTAGGCATGGACCGGTTTTCCCGGTAATCCGTATTTGGC (site GTGTAGGCTGC),0
14,CTGTAGGCATGGACCGGTTTTCCCGGTAATCCGTATTTGGC (site TTGTAGGCTGC),0
15,CTGTAGGCATGGACCGGTTTTCCCGGTAATCCGTATTTGGG (site CTGTAGGCTCC),0.27
16,CTGTAGTCATGGACCGGTTTTCCCGGTAATCCGTATTTGTC (site CTGTAGTCTGA),3.24
17,CTGTCGCCATGGACCGGTTTTCCCGGTAATCCGTATTTGCG (site CTGTCGCCTCG),0.00856
18,CTGTGCGCATGGACCGGTTTTCCCGGTAATCCGTATTTGAC (site TCCCTGTCTTC),0.0087
19,CTGTTACCATGGACCGGTTTTCCCGGTAATCCGTATTTGCT (site CTGATACCTAG),0
20,CTGTTACCATGGACCGGTTTTCCCGGTAATCCGTATTTGCT (site CTGCTACCTAG),0.146
21,CTGTTACCATGGACCGGTTTTCCCGGTAATCCGTATTTGCT (site CTGGTACCTAG),0
22,CTGTTACCATGGACCGGTTTTCCCGGTAATCCGTATTTGCT (site CTGTTACCTAG),0
23,CTGTTTACATGGACCGGTTTTCCCGGTAATCCGTATTTGCT (site CAGTTTACTAG),0.405
24,CTGTTTACATGGACCGGTTTTCCCGGTAATCCGTATTTGCT (site CCGTTTACTAG),1.15
25,CTGTTTACATGGACCGGTTTTCCCGGTAATCCGTATTTGCT (site CGGTTTACTAG),0

row,Sequence,recombinant UMI read abundance (log10)
1,CTGTTTACATGGACCGGTTTTCCCGGTAATCCGTATTTGCT (site CTGTTTACTAG),2.02
2,CTTAGCTCATGGACCGGTTTTCCCGGTAATCCGTATTTGCT (site CTTAGCTCTAG),0
3,CTTCAGCCATGGACCGGTTTTCCCGGTAATCCGTATTTGGA (site CTTCAGCCTTC),0
4,CTTCCCTCATGGACCGGTTTTCCCGGTAATCCGTATTTGTA (site CTTCACTCTTA),0.00365
5,CTTCCCTCATGGACCGGTTTTCCCGGTAATCCGTATTTGTA (site CTTCCCTCTTA),2.49
6,CTTCCCTCATGGACCGGTTTTCCCGGTAATCCGTATTTGTA (site CTTCGCTCTTA),0.00376
7,CTTCCCTCATGGACCGGTTTTCCCGGTAATCCGTATTTGTA (site CTTCTCTCTTA),0.434
8,CTTCTAACATGGACCGGTTTTCCCGGTAATCCGTATTTGCG (site CTTCTAACTCG),0.213
9,CTTCTCGCATGGACCGGTTTTCCCGGTAATCCGTATTTGTA (site CTTCTCACTTA),0.459
10,CTTCTCGCATGGACCGGTTTTCCCGGTAATCCGTATTTGTA (site CTTCTCCCTTA),0.0264
11,CTTCTCGCATGGACCGGTTTTCCCGGTAATCCGTATTTGTA (site CTTCTCGCTTA),1.29
12,CTTCTCGCATGGACCGGTTTTCCCGGTAATCCGTATTTGTA (site CTTCTCTCTTA),0.0056
13,CTTCTCTCATGGACCGGTTTTCCCGGTAATCCGTATTTGGA (site CTTCTCTCTTA),0.0983
14,CTTCTCTCATGGACCGGTTTTCCCGGTAATCCGTATTTGGA (site CTTCTCTCTTC),1.35
15,CTTCTCTCATGGACCGGTTTTCCCGGTAATCCGTATTTGGA (site CTTCTCTCTTG),0
16,CTTCTCTCATGGACCGGTTTTCCCGGTAATCCGTATTTGGA (site CTTCTCTCTTT),0.925
17,CTTCTCTCATGGACCGGTTTTCCCGGTAATCCGTATTTGTC (site CTTCTCTCTAA),1.6
18,CTTCTCTCATGGACCGGTTTTCCCGGTAATCCGTATTTGTC (site CTTCTCTCTCA),0.0104
19,CTTCTCTCATGGACCGGTTTTCCCGGTAATCCGTATTTGTC (site CTTCTCTCTGA),2.45
20,CTTCTCTCATGGACCGGTTTTCCCGGTAATCCGTATTTGTC (site CTTCTCTCTTA),0.836
21,CTTGAAACATGGACCGGTTTTCCCGGTAATCCGTATTTGCA (site CTAGAAACTTG),1.31
22,CTTGAAACATGGACCGGTTTTCCCGGTAATCCGTATTTGCA (site CTCGAAACTTG),0.00453
23,CTTGAAACATGGACCGGTTTTCCCGGTAATCCGTATTTGCA (site CTGGAAACTTG),0.538
24,CTTGAAACATGGACCGGTTTTCCCGGTAATCCGTATTTGCA (site CTTGAAACTTG),2.07
25,CTTGACGCATGGACCGGTTTTCCCGGTAATCCGTATTTGGT (site CTTGACGCTAC),0.601
